Values quoted from earlier work in patent US20250213501A1, “IMPROVING SEMEN QUALITY” (CEUTICS HEALTH GMBH, priority 2022, published 2025).

Experiments:
[1] = daily intake of 12 mg of spermidine provided in a plant extract (e.g., wheat germ extract)

## NCCCCNCCCN [spermidine]
70 kg person
  NOAEL for a 70 kg person: 470 mg/day
Til et al., Food and Chemical Toxicology 1997
  NOAEL (No Observed Adverse Effect Level): 83 mg/kg body weight/day
[1]
  safety of daily intake: safe
